# The supplement of paper PMC11061612
# Assays:
# [1] = tested on: KP-3 (Pancreatic Carcinoma); experiment: Bliss excess, mean over the matrix (fraction); higher = more synergy
# How it was run: (§1)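 After 24 hours at 37°C and 5% CO2 in 1536-well plates, cells in DMEM/F12 or RPMI plus 10% FBS received two-drug dose matrices for 72 hours. Viability came from CellTiter-Glo 2.0 luminescence and was scaled as inhibition, anchored at 0 by vehicle wells and at 1 by blank wells. Combination Emax is taken as the second-highest inhibition in the matrix, and Bliss excess as the observed combination effect less EA + EB − EA·EB, with EA and EB the single-agent effects.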
# [2] = tested on: CW-2 (Colorectal Carcinoma); experiment: combination Emax (second highest fraction inhibited in the dose matrix, 72 h); higher = more inhibition; extreme values may be limits of the assay
# How it was run: as §1
# [3] = tested on: DMS-114 (Small Cell Lung Carcinoma); experiment: as above
# How it was run: as §1
# [4] = tested on: KP-3 (Pancreatic Carcinoma); experiment: as above
# How it was run: as §1
# [5] = tested on: KU812 (Chronic Myelogenous Leukemia); experiment: as above
# How it was run: as §1
# [6] = tested on: KYSE-270 (Esophageal Squamous Cell Carcinoma); experiment: as above
# How it was run: as §1
# M059J (Glioblastoma) = experiment: as above
# How it was run: as §1
# [7] = tested on: MN-60 (B-Lymphoblastic Leukemia); experiment: as above
# How it was run: as §1
# [8] = tested on: MOG-G-CCM (Low Grade Glioma); experiment: as above
# How it was run: as §1
# [9] = tested on: NCCIT (Other Solid Carcinomas); experiment: as above
# How it was run: as §1
# NCI-H2731 (Mesothelioma) = experiment: as above
# How it was run: as §1
# [10] = tested on: NCI-H3122 (Lung Adenocarcinoma); experiment: as above
# How it was run: as §1
# [11] = tested on: NCI-H520 (Squamous Cell Lung Carcinoma); experiment: as above
# How it was run: as §1
# [12] = tested on: NCI-H526 (Small Cell Lung Carcinoma); experiment: as above
# How it was run: as §1
# [13] = tested on: NCI-H929 (Plasma Cell Myeloma); experiment: as above
# How it was run: as §1
# [14] = tested on: OCI-AML3 (Acute Myeloid Leukemia); experiment: as above
# How it was run: as §1
# SJSA-1 (Osteosarcoma) = experiment: as above
# How it was run: as §1
# [15] = tested on: SK-GT-4 (Esophageal Adenocarcinoma); experiment: as above
# How it was run: as §1
# [16] = tested on: ST486 (Burkitt's Lymphoma); experiment: as above
# How it was run: as §1
# [17] = tested on: T-T (Esophageal Squamous Cell Carcinoma); experiment: as above
# How it was run: as §1
# 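Wherever Bliss excess, mean over the matrix is given: after 72 h of two-drug dosing.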
Structure (SMILES),Bliss excess [1],combination Emax [2],combination Emax [3],combination Emax [4],combination Emax [5],combination Emax [6],combination Emax (M059J (Glioblastoma)),combination Emax [7],combination Emax [8],combination Emax [9],combination Emax (NCI-H2731 (Mesothelioma)),combination Emax [10],combination Emax [11],combination Emax [12],combination Emax [13],combination Emax [14],combination Emax (SJSA-1 (Osteosarcoma)),combination Emax [15],combination Emax [16],combination Emax [17]
"C[C@@H](Nc1cc(F)cc(F)c1)c1cc(C(=O)N(C)C)cc2c(=O)cc(N3CCOCC3)oc12 [AZD8186] + CC(=O)c1c(C)c2cnc(Nc3ccc(N4CCNCC4)cn3)nc2n(C2CCCC2)c1=O [Palbociclib] (first compound max 10 µM, 7x7, partner max 10 µM)",0.0123,0.374,0.468,0.283,0.582,0.311,0.337,0.502,0.519,0.542,0.233,0.742,0.688,0.081,0.99,0.525,0.376,0.422,0.813,0.315
"CN(CCO)CC[C@H](CSc1ccccc1)Nc1ccc(S(=O)(=O)NC(=O)c2ccc(N3CCC([C@@H](O)c4ccccc4-c4ccc(Cl)cc4)CC3)cc2)cc1S(=O)(=O)C(F)(F)F [AZD4320] + CC(=O)O[C@H]1C(=O)[C@@]2(C)[C@H]([C@H](OC(=O)c3ccccc3)[C@]3(O)C[C@H](OC(=O)[C@H](O)[C@@H](NC(=O)c4ccccc4)c4ccccc4)C(C)=C1C3(C)C)[C@]1(OC(C)=O)CO[C@@H]1C[C@@H]2O [Paclitaxel] (first compound max 1 µM, 7x7, partner max 3 µM)",0.131,0.608,0.879,0.8,0.943,0.913,0.974,0.546,0.996,0.989,0.932,0.999,0.944,1,0.926,1,0.967,0.894,1,0.92
"C[C@@H](Nc1cc(F)cc(F)c1)c1cc(C(=O)N(C)C)cc2c(=O)cc(N3CCOCC3)oc12 [AZD8186] + C1CN(CCC1(C(=O)N[C@@H](CCO)C2=CC=C(C=C2)Cl)N)C3=NC=NC4=C3C=CN4 [AZD5363] (first compound max 10 µM, 7x7, partner max 10 µM)",-0.0207,0.275,0.472,0.312,0.161,0.347,0.408,0.193,0.581,0.499,0.305,0.522,0.564,0.147,1,0.428,0.426,0.457,0.151,0.301
"N#Cc1cnc(Nc2cc(NC[C@H]3CNCCO3)c(C(F)(F)F)cn2)cn1 [SRA737] + C=CCn1c(=O)c2cnc(Nc3ccc(N4CCN(C)CC4)cc3)nc2n1-c1cccc(C(C)(C)O)n1 [AZD1775] (first compound max 10 µM, partner max 1 µM)",0.0086,0.499,0.229,0.294,0.796,0.991,0.659,0.642,0.683,0.821,0.357,0.724,0.755,0.753,0.724,0.934,0.535,0.565,0.987,0.671
"C[C@@H](Oc1cc(-c2cnn(C3CCNCC3)c2)cnc1N)c1c(Cl)ccc(F)c1Cl [Crizotinib] + CC1=C(C(=CC=C1)Cl)NC(=O)C2=CN=C(S2)NC3=CC(=NC(=N3)C)N4CCN(CC4)CCO [Dasatinib] (first compound max 10 µM, 7x7, partner max 2 µM)",-0.057,0.306,0.591,0.127,1,0.792,0.829,0.494,0.921,0.342,0.888,0.881,0.659,0.452,0.999,0.639,0.885,0.812,0.95,0.825
"O=C(c1cc(Cc2n[nH]c(=O)c3ccccc23)ccc1F)N1CCN(C(=O)C2CC2)CC1 [Olaparib] + COc1nnc2ccc(N3CCC(c4ccc(OCCN5CCN(C)C(=O)[C@H]5C)cc4)CC3)nn12 [AZD5153] (first compound max 10 µM, 7x7, partner max 1 µM)",-0.0554,0.48,0.514,0.125,0.908,0.493,0.718,0.733,0.51,0.66,0.362,0.596,0.591,0.926,0.911,1,0.539,0.426,0.897,0.48
"O=C(c1cc(Cc2n[nH]c(=O)c3ccccc23)ccc1F)N1CCN(C(=O)C2CC2)CC1 [Olaparib] + CC1(C)CCC(CN2CCN(c3ccc(C(=O)NS(=O)(=O)c4ccc(NCC5CCOCC5)c([N+](=O)[O-])c4)c(Oc4cnc5[nH]ccc5c4)c3)CC2)=C(c2ccc(Cl)cc2)C1 [Venetoclax] (first compound max 10 µM, 7x7, partner max 1 µM)",-0.0562,0.118,0.262,0.0923,0.403,0.302,0.291,0.222,0.168,0.231,0.0659,0.226,0.119,0.862,0.21,0.427,0.118,0.101,0.217,0.177
"CS(=O)(=O)CCNCc1ccc(-c2ccc3ncnc(Nc4ccc(OCc5cccc(F)c5)c(Cl)c4)c3c2)o1 [Lapatinib] + NC1(c2ccc(-c3nc4ccn5c(=O)[nH]nc5c4cc3-c3ccccc3)cc2)CCC1 [MK-2206] (first compound max 10 µM, 7x7, partner max 10 µM)",-0.0194,0.611,0.893,0.205,0.917,0.913,0.756,0.904,0.523,0.883,0.894,0.653,0.922,0.864,1,0.683,0.897,0.7,0.908,0.928
"C[C@@H]1COCCN1c1cc(C2([S@](C)(=N)=O)CC2)nc(-c2ccnc3[nH]ccc23)n1 [AZD6738] + C1CC(C1)(C(=O)[O-])C(=O)[O-].N.N.[Pt+2] [Carboplatin] (first compound max 10 µM, 7x7, partner max 10 µM)",-0.0087,0.537,0.4,0.264,0.817,0.779,0.502,0.638,0.536,0.531,0.399,0.674,0.674,0.564,0.801,0.854,0.477,0.463,0.865,0.26
"Cc1nc(-c2cn3c(n2)-c2ccc(-c4cnn(C(C)(C)C(N)=O)c4)cc2OCC3)n(C(C)C)n1 [Taselisib] + O=C(Nc1ccc2[nH]nc(-c3ccncc3)c2c1)[C@@H]1CCN(CC(=O)N2CCN(c3ccc(-c4ncccn4)cc3)CC2)C1 [SCH772984] (first compound max 10 µM, 7x7, partner max 5 µM)",0.0368,0.546,0.732,0.354,1,0.822,0.564,0.31,0.577,0.693,0.553,0.978,0.638,0.189,1,0.941,0.69,0.924,0.654,0.853
"Cc1c2c(nn1C)CSCc1cc(n(C)n1)CSc1cc(c3ccccc3c1)OCCCc1c(C(=O)O)n(C)c3c-2c(Cl)ccc13 [AZD5991] + CC(=O)O[C@H]1C(=O)[C@@]2(C)[C@H]([C@H](OC(=O)c3ccccc3)[C@]3(O)C[C@H](OC(=O)[C@H](O)[C@@H](NC(=O)c4ccccc4)c4ccccc4)C(C)=C1C3(C)C)[C@]1(OC(C)=O)CO[C@@H]1C[C@@H]2O [Paclitaxel] (first compound max 1 µM, 7x7, partner max 3 µM)",-0.0622,0.497,0.944,0.365,0.918,0.962,0.865,0.539,0.936,0.984,0.397,0.965,0.769,1,1,1,0.725,0.454,0.994,0.989
"N#Cc1cnc(Nc2cc(NC[C@H]3CNCCO3)c(C(F)(F)F)cn2)cn1 [SRA737] + O=c1[nH]cc(F)c(=O)[nH]1 [5-Fluorouracil] (first compound max 10 µM, 7x7, partner max 20 µM)",–,0.403,0,0.307,0.606,0.99,0.315,0.436,0.419,0.458,0.172,0.611,0.588,0.855,0.768,0.922,0.403,0.407,0.928,0.384
